Consider 22 molecules from PubChem BioAssay (NCI).

Test systems include A549 NSCLC; HCT-15 colon; KM12 colon; M14 melanoma; MDA-MB-231 breast; SK-OV-3 ovarian; SR leukemia; TK-10 renal; UO-31 renal; HCC-2998 colon.
Common to all, as to experiment: DTP human tumour cell line panel, 48 h

Structures are written as SMILES.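 Values below derive from 48-hour exposures of cells grown in 96-well plates, with endpoints linearly interpolated between the two concentrations bracketing the appropriate inhibition level. TGI: concentration producing complete growth inhibition.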 A value given as a limit tells only on which side of the number the result lay.

What is called TGI is the concentration at which net growth stops.

Consider `CCOC(=O)c1sc(N)nc1N1CCCC1`, for which the TGI in the assay on A549 NSCLC, with HCT-15 colon, in the assay with KM12 colon, in the assay with M14 melanoma, with MDA-MB-231 breast and in the assay on SK-OV-3 ovarian was > 100 µM throughout. Besides, the TGI in the assay on SR leukemia, in the assay on TK-10 renal and in the assay on UO-31 renal was > 100 µM in each case.
In the case of `COC(=O)c1c(C(=O)OC)c2ccccn2c1-c1cc(C)cc2c1C(=O)C=CC2=O`, the TGI came out at 25.7 µM in the assay on A549 NSCLC; 20.1 µM with HCC-2998 colon; 15.6 µM in the assay with HCT-15 colon; 14.5 µM with M14 melanoma; 15.9 µM with MDA-MB-231 breast; 8.53 µM in the assay on SR leukemia. The TGI was determined as 18.4 µM with TK-10 renal and 6.05 µM with UO-31 renal.
Take `CC(=O)OC1=C(c2ccccc2)S(=O)(=O)c2ccccc21`: the TGI in the assay with A549 NSCLC, with HCC-2998 colon, in the assay with HCT-15 colon, in the assay on KM12 colon, with M14 melanoma and in the assay on MDA-MB-231 breast was > 100 µM each time. The TGI in the assay with SR leukemia, in the assay with TK-10 renal and in the assay with UO-31 renal was > 100 µM throughout.
As to `NC(C(=O)O)C(O)c1cnc[nH]1` (centres undefined), the TGI in the assay with A549 NSCLC, in the assay on HCT-15 colon, with KM12 colon, with M14 melanoma, in the assay on MDA-MB-231 breast and in the assay on SK-OV-3 ovarian was > 100 µM each time. Also, the TGI in the assay on SR leukemia and with TK-10 renal was > 100 µM each time.
Regarding `C[C@@H](NC(=O)Nc1cccc(C(=O)Nc2cc(C(C)(C)C)ccc2C(=O)O)n1)c1ccccc1`, the TGI with A549 NSCLC was > 100 µM; in the assay on HCC-2998 colon it was > 100 µM; in the assay with HCT-15 colon, > 100 µM; with KM12 colon it was > 100 µM; with M14 melanoma, > 100 µM; in the assay on MDA-MB-231 breast, 50 µM. The TGI in the assay on SK-OV-3 ovarian, in the assay on SR leukemia and in the assay with UO-31 renal was > 100 µM each time.
As to `COc1ccc2c(c1)SC1=Nc3sc4cc(OC)ccc4[n+]3CN12`, the TGI in the assay on A549 NSCLC was > 100 µM; with HCT-15 colon, > 100 µM; in the assay with KM12 colon, 71.9 µM; in the assay on M14 melanoma it was > 100 µM; in the assay on MDA-MB-231 breast, > 100 µM; with SK-OV-3 ovarian, > 100 µM. Further, the TGI is 24.4 µM in the assay with SR leukemia, > 100 µM in the assay with TK-10 renal and > 100 µM in the assay with UO-31 renal.
Take `O=C(O)c1ccc2nc(-c3ccccn3)c(-c3ccccn3)nc2c1`: the TGI in the assay on HCC-2998 colon, with HCT-15 colon, in the assay with KM12 colon, with M14 melanoma, in the assay on MDA-MB-231 breast and with SK-OV-3 ovarian was > 100 µM each time. Also, the TGI in the assay on SR leukemia, in the assay with TK-10 renal and in the assay with UO-31 renal was > 100 µM each time.
Take `O=C(NNC(=O)c1cc2ccccc2[nH]1)c1cc2ccccc2[nH]1`: the TGI in the assay on A549 NSCLC, in the assay on HCT-15 colon, in the assay with KM12 colon, with M14 melanoma, with MDA-MB-231 breast and in the assay on SK-OV-3 ovarian was > 100 µM throughout. Besides, the TGI in the assay with SR leukemia, in the assay with TK-10 renal and in the assay on UO-31 renal was > 100 µM each time.
As to `COc1nc2c(c(=O)[nH]1)N=C(c1ccc([N+](=O)[O-])cc1)CC(c1ccccc1)N2` (centres undefined), the TGI in the assay on A549 NSCLC, with HCC-2998 colon, with KM12 colon, with M14 melanoma, in the assay on MDA-MB-231 breast and in the assay on SR leukemia was > 100 µM each time. In addition, the concentration for total growth inhibition (TGI) with UO-31 renal was > 100 µM.
For the molecule `COc1cc(OC)cc(Oc2nc3ccc(C(F)(F)F)cc3nc2-c2ccccc2)c1`, the total growth inhibition concentration (TGI) with A549 NSCLC, with HCC-2998 colon, with HCT-15 colon, in the assay on KM12 colon, in the assay on MDA-MB-231 breast and in the assay on SK-OV-3 ovarian was > 100 µM each time. The TGI in the assay on SR leukemia, in the assay on TK-10 renal and in the assay with UO-31 renal was > 100 µM each time.
Regarding `CC(=O)OCC1OC(NC(=S)Nn2c(-c3ccccc3)nc3ccccc3c2=O)C(OC(C)=O)C(OC(C)=O)C1OC(C)=O` (centres undefined), the TGI with A549 NSCLC, in the assay on HCC-2998 colon, with HCT-15 colon, with KM12 colon, in the assay with M14 melanoma and in the assay on MDA-MB-231 breast was > 100 µM in each case. In addition, the TGI was > 100 µM in the assay on SK-OV-3 ovarian, 88.7 µM in the assay with SR leukemia and > 100 µM in the assay with UO-31 renal.
Regarding `CN(C)CCCCN1c2ccccc2Sc2ccc(N=[N+]=[N-])cc21`, the total growth inhibition concentration (TGI) in the assay on A549 NSCLC is 22.6 µM; in the assay on HCC-2998 colon, 3.18 µM; in the assay on HCT-15 colon, 12.8 µM; with KM12 colon, 8.76 µM; in the assay on M14 melanoma it was 3.06 µM; in the assay with MDA-MB-231 breast it was 19.9 µM. Also, the TGI with SK-OV-3 ovarian came to 26.5 µM; in the assay on TK-10 renal, 24.7 µM; in the assay with UO-31 renal it was 19 µM.
Regarding `CCOc1cc(NC(C)=O)ccc1C(=O)NN1C(=O)/C(=C/c2ccc(Cl)cc2)N=C1c1ccccc1`, the TGI in the assay with A549 NSCLC, in the assay on HCT-15 colon, in the assay on KM12 colon, in the assay with M14 melanoma, with MDA-MB-231 breast and in the assay on SK-OV-3 ovarian was > 100 µM in each case. Also, the TGI in the assay on SR leukemia, in the assay with TK-10 renal and in the assay on UO-31 renal was > 100 µM each time.
As for `O=C(c1ccccc1)N1N=C(C(F)(F)F)CC1(O)C(F)(F)F` (centres undefined), the TGI in the assay with A549 NSCLC, with HCC-2998 colon, with HCT-15 colon, in the assay on KM12 colon, in the assay with M14 melanoma and in the assay with MDA-MB-231 breast was > 100 µM throughout. Besides, the TGI with SR leukemia, with TK-10 renal and in the assay on UO-31 renal was > 100 µM each time.
Take `C[N+](C)(C)CC(=O)N/N=C\c1c(O)ccc2ccccc12`: the TGI in the assay with A549 NSCLC, with HCT-15 colon, in the assay with KM12 colon, with M14 melanoma, in the assay with MDA-MB-231 breast and with SK-OV-3 ovarian was > 100 µM each time. Moreover, the TGI with SR leukemia, in the assay on TK-10 renal and in the assay on UO-31 renal was > 100 µM each time.
As to `c1ccc2sc(C3(N4CCCCCC4)CCCCC3)cc2c1`, the TGI in the assay with A549 NSCLC was > 100 µM; with HCC-2998 colon it was 29.4 µM; in the assay with HCT-15 colon, 53.6 µM; in the assay with KM12 colon, 31.8 µM; in the assay on M14 melanoma, 53.6 µM; in the assay with MDA-MB-231 breast it was 47.5 µM. Further, the TGI in the assay on SK-OV-3 ovarian is > 100 µM; in the assay on TK-10 renal, 53.4 µM; with UO-31 renal, 56.2 µM.
Turning to `O=c1oc2cc(O)ccc2c(O)c1C(c1ccc(/C=C/c2ccccc2)cc1)c1c(O)c2ccc(O)cc2oc1=O`, the TGI in the assay on A549 NSCLC, in the assay on HCC-2998 colon, with HCT-15 colon, in the assay on KM12 colon, in the assay on M14 melanoma and in the assay with MDA-MB-231 breast was > 100 µM in each case. Further, the TGI with SK-OV-3 ovarian, with TK-10 renal and in the assay with UO-31 renal was > 100 µM throughout.
As for `CC(C(=O)NCNC(=O)c1ccccc1)C(=O)NCc1ccccc1` (centres undefined), the TGI in the assay on A549 NSCLC, in the assay on HCT-15 colon, in the assay with KM12 colon, in the assay on M14 melanoma, with MDA-MB-231 breast and with SK-OV-3 ovarian was > 100 µM throughout. The TGI in the assay on SR leukemia, in the assay with TK-10 renal and in the assay with UO-31 renal was > 100 µM throughout.
Regarding `CC(C)=CCN1c2ccccc2[C@@]2(CC=C(C)C)CCN(C)[C@@H]12`, the TGI is > 100 µM in the assay on A549 NSCLC; 29.5 µM in the assay on HCC-2998 colon; > 100 µM in the assay with HCT-15 colon; > 100 µM with KM12 colon; > 100 µM in the assay with MDA-MB-231 breast; 77.1 µM in the assay with SK-OV-3 ovarian. Moreover, the TGI is > 100 µM in the assay on SR leukemia, > 100 µM in the assay with TK-10 renal and 41.8 µM in the assay on UO-31 renal.
As for `CC(=O)OCCn1c(Cc2ccc(Cl)cc2)nn(C(C)=O)c1=O`, the concentration for total growth inhibition (TGI) with A549 NSCLC, in the assay on HCC-2998 colon, with HCT-15 colon, in the assay on KM12 colon, with M14 melanoma and with MDA-MB-231 breast was > 100 µM in each case. Further, the TGI with SK-OV-3 ovarian, in the assay with TK-10 renal and with UO-31 renal was > 100 µM each time.
As to `CCOP(=O)(OCC)/C(F)=C/c1ccc(F)cc1`, the TGI in the assay with A549 NSCLC, in the assay with HCT-15 colon, in the assay with KM12 colon, in the assay on M14 melanoma, with MDA-MB-231 breast and with SK-OV-3 ovarian was > 100 µM throughout. Further, the TGI with SR leukemia, with TK-10 renal and in the assay on UO-31 renal was > 100 µM in each case.
For the molecule `COC(=O)[C@@H](N1C(=O)c2ccccc2C1=O)C1(C)CC(Cl)=NO1` (some centres undefined), the total growth inhibition concentration (TGI) was > 100 µM with A549 NSCLC; > 100 µM with HCC-2998 colon; > 100 µM in the assay with HCT-15 colon; > 100 µM in the assay with KM12 colon; > 100 µM with M14 melanoma; 60.3 µM with MDA-MB-231 breast. Also, the TGI with SK-OV-3 ovarian was > 100 µM; with TK-10 renal, 82.4 µM; in the assay with UO-31 renal, > 100 µM.
